Values quoted from earlier work, collected in patent publication US20130281387A1, “Chemosensory Receptor Ligand-Based Therapies” (ELCELYX THERAPEUTICS, INC., priority 2010, published 2013).

test system: bitter receptor; details: bitter phytonutrients in common plant foods

Compound | Taste quality
C=CCC(=NOS(=O)(=O)O)S[C@@H]1O[C@H](CO)[C@@H](O)[C@H](O)[C@H]1O (stereo in doubt) [Sinigrin] | Bitter
C[S+]([O-])CCCN=C=S (stereo not shown) [3-Methyl-sulfinylpropyl isothiocyanate] | Acrid mustard oils
C[S+]([O-])CCCCN=C=S (stereo not shown) [4-Methylsulfinyl butyl isothiocyanate] | Acrid mustard oils
C=CCN=C=S [Allyl-isothiocyanate] | Acrid mustard oils;
S=C=NCc1ccccc1 [Benzyl isothiocyanate] | Acrid mustard oils;
O=c1c(-c2ccc(O)cc2)coc2cc(O[C@@H]3O[C@H](CO)[C@@H](O)[C@H](O)[C@H]3O)ccc12 [Daidzin] | Astringent
O=C(O[C@@H]1Cc2c(O)cc(O)cc2O[C@@H]1c1ccc(O)c(O)c1)c1cc(O)c(O)c(O)c1 [Epicatechin gallate] | Bitter and astringent
O=C(O[C@@H]1Cc2c(O)cc(O)cc2O[C@@H]1c1cc(O)c(O)c(O)c1)c1cc(O)c(O)c(O)c1 [Epigallocatechin gallate] | Bitter with sweet
Oc1cc(O)c2c(c1)O[C@H](c1cc(O)c(O)c(O)c1)[C@H](O)C2 [Epigallocatechin] | Bitter with sweet
O=c1c(-c2ccc(O)cc2)coc2cc(O)cc(O)c12 [Genistein] | Bitter or astringent
O=c1c(-c2ccc(O)cc2)coc2cc(O[C@@H]3O[C@H](CO)[C@@H](O)[C@H](O)[C@H]3O)cc(O)c12 [Genistin] | Astringent
O=S(=O)(O)ON=C(Cc1c[nH]c2ccccc12)S[C@@H]1O[C@H](CO)[C@@H](O)[C@H](O)[C@H]1O [Glucobrassicin] | Bitter
C=CC1CNC(=S)O1 (stereo not shown) [Goitrin, Goitrin 5-vinyl-2-oxazolidine thione] | Bitter
CC1(C)O[C@H]2CC(=O)OC[C@]23[C@H]2CC[C@@](C)([C@@H](O[C@@H]4O[C@H](CO)[C@@H](O)[C@H](O)[C@H]4O)c4ccoc4)[C@@]4(O[C@@H]4C(=O)O)[C@]2(C)C(=O)C[C@@H]13 [Limonin glucoside] | Tasteless
CC1(C)O[C@H]2CC(=O)OC[C@]23[C@H]2CC[C@@]4(C)[C@H](c5ccoc5)OC(=O)[C@H]5O[C@]54[C@]2(C)C(=O)C[C@@H]13 [Limonin] | Bitter
C[C@@H]1O[C@@H](O[C@H]2[C@H](Oc3cc(O)c4c(c3)O[C@H](c3ccc(O)cc3)CC4=O)O[C@H](CO)[C@@H](O)[C@@H]2O)[C@H](O)[C@H](O)[C@H]1O [Naringin] | Bitter
COc1ccc(-c2cc(=O)c3c(OC)c(OC)c(OC)c(OC)c3o2)cc1OC [Nobiletin] | Bitter
CC(=O)O[C@H]1CC(=O)OC(C)(C)[C@@H]2CC(=O)[C@]3(C)[C@H](CC[C@@]4(C)[C@H](c5ccoc5)OC(=O)[C@H]5O[C@]543)[C@@]12C [Nomilin] | Bitter
C=C[C@H](O)CC(=NOS(=O)(=O)O)S[C@@H]1O[C@H](CO)[C@@H](O)[C@H](O)[C@H]1O [Progoitrin] | Bitter
O=c1c(O)c(-c2ccc(O)c(O)c2)oc2cc(O)cc(O)c12 [Quercetin] | Bitter
COc1ccc(-c2cc(=O)c3c(OC)c(OC)c(OC)cc3o2)cc1OC [Sinensetin] | Bitter
COc1ccc(-c2cc(=O)c3c(OC)c(OC)c(OC)c(OC)c3o2)cc1 [Tangeretin] | Bitter
O=c1c(-c2ccc(O)cc2)coc2cc(O)ccc12 [daidzein] | Bitter or astringent

test system: GLP-1; details: humans, after administration

Compound | post-prandial GLP-1 levels
OCCN1C[C@H](O)[C@@H](O)[C@H](O)[C@H]1CO [miglitol] | increase

test system: gut hormones; details: humans, after administration

Compound | gut hormones in the circulation
C=C1C[C@@]23CC[C@H]4[C@@](C)(CCC[C@@]4(C)C(=O)O[C@@H]4O[C@H](CO)[C@@H](O)[C@H](O)[C@H]4O)[C@@H]2CC[C@]1(O[C@@H]1O[C@H](CO)[C@@H](O)[C@H](O[C@@H]2O[C@H](CO)[C@@H](O)[C@H](O)[C@H]2O)[C@H]1O[C@@H]1O[C@H](CO)[C@@H](O)[C@H](O)[C@H]1O)C3 [Rebaudioside A] | no alterations
